Experimental data published in patent US20230364049A1, “COMBINATION OF P2Y6 INHIBITORS AND IMMUNE CHECKPOINT INHIBITORS” (VIB VZW, priority 2020, published 2023).

What was measured:
[1] = tested on: murine bone marrow derived macrophages (BMDMs); experiment: BMDM migration assay (Transwell, UDP as chemoattractant); assay type: cell-based; conditions: 10 μM MRS2578, 100 μM UDP in bottom chamber, 6 h, FIG. 4
Description: In the macrophage migration assays, 1×10^5 murine BMDMs were seeded on […] polycarbonate membranes (Transwell; Costar) with or without 10 μM MRS2578. The bottom chambers contained DMEM with or without 100 μM UDP, 100 μM Uridine (Sigma-Aldrich) or 100 μM Cytidine (Sigma-Aldrich), or alternatively, conditioned media from NT or CDA KD cells.
After 6 h incubation, the cells were removed from the top of each membrane with a cotton stick and migrated cells were fixed in 4% PFA, washed in PBS, stained with crystal violet (2.5 g/L) and Hoechst, and mounted on glass slides with ProLong Gold mounting medium without DAPI. Images were acquired with Olympus BX41 microscope and CellSense imaging software.

Panc02 tumors = experiment: Subcutaneously implanted Panc02 tumor model, with FACS analysis of tumors; assay type: in vivo, mice
Description: 4×10^6 Panc02 cells were injected subcutaneously (s.c.) in the right flank of the mouse in a final suspension of 200 μI PBS. Tumor volumes were measured at least three times per week with a calliper and calculated using the formula: Volume (mm^3): ((Width(mm))^2×Length(mm))/2. 0.1×10^6 KPC1245 cells were injected orthotopically into the head of the pancreas in 20 μl of PBS.
(§1) Mice were randomized and treated, at indicated time points, intraperitoneally (i.p.) with 10 mg/kg of α-PD-1 (BioXcell) or control IgG from rat serum (Sigma-Aldrich), 3 mg/kg/day MRS2578 (Selleck Chemicals) or control vehicle. At the end stage, tumor weight was measured.
(§2) Mice were monitored and weighed continuously during the experiments. Mice showing symptoms of illness, that lost 20% of initial body weight, peritoneal leakage or with ulcerated tumors were sacrificed and excluded from the experiments. At the end stage, tumor weight was registered and samples were collected for histological examination, metabolomics and/or FACS/sorter analysis.
Tumor-bearing mice were sacrificed by cervical dislocation and perfused with saline to remove circulating immune cells. Tumors were harvested and minced in αMEM medium (Lonza) supplemented with 5% FBS, 1% Pen/Strep, 50 μM β-mercaptoethanol (Gibco), 5U/mL DNase I (Qiagen), 0.85 mg/mL Collagenase V (Collagenase from Clostridium histolyticum, Sigma-Aldrich), 1.25 mg/mL Collagenase D (Collagenase from Clostridium histolyticum, Roche) and 1 mg/mL Dispase II (Gibco) and incubated for 30 minutes at 37° C. The digested tissue was filtered using a 70 μm pore sized mesh strainer and cells were centrifuged 5 minutes at 300 xg. The samples were resuspended in Red Blood Cell Lysing Buffer Hybri-Max™ (Sigma-Aldrich) for 30 seconds, inactivated with FACS buffer (PBS containing 2% FBS and 2 mM EDTA) and centrifuged. The cell pellets were resuspended in FACS buffer and filtered with a 40 μm pore sized mesh strainer. Cells were resuspended in FACS buffer and for the intracellular measurement of interferon γ (IFN-γ) and granzyme B (GZMB), single-cell suspensions were culture in RPMI medium supplemented with 10% FBS, 1% glutamine, 1% Pen/Strep and stimulated with phorbol 12-myristate 13-acetate (PMA)/ionomycin Cell Stimulation Cocktail (eBioscience™, 1:500) in the presence of Brefeldin A (BioLegend®, 1:1000) or Monensin (eBioscience™, 1:1000) for 4 h at 37° C. Cells were then incubated for 15 minutes at 4° C. with Mouse BD Fc Block purified Rat Anti-Mouse CD16/CD32 mAb (BD Pharmingen™) and stained with the following antibodies for 30 minutes at 4° C.: Fixable viability dye (eFluor™ 506, eBioscience™), anti-CD45 (30-F11, APC-Cy7 or FITC, BioLegend®), anti-CD11b (M1/70, PerCP-Cy5.5, BioLegend®; eFluor™ 450, eBioscience™; or PE, BD Biosciences), anti-TCR-13 chain (H57-597, BV421, BD Biosciences), anti-CD4 (RM4-5, PE, BioLegend®), anti-CD8 (53-6.7, PE-Cy7, eBioscience™ or 53-6.7, APC-Cy7, BioLegend®), anti-CD69 (H1.2F3, APC, eBioscience™), anti-F4/80 (BM8, Alexa Fluor 488, eBioscience™; PerCP-Cy5.5, BioLegend®; or BV421, BioLegend®), anti-IFN-γ (XMG1.2, PE-Cy7, eBioscience™), anti-GZMB (GB11, Alexa Fluor 647, BioLegend®), anti-MHC-II (M5/114.15.2, APC, eBioscience™; or PerCP-eFluor 710, eBioscience™), anti-CD11c (N418, PE-Cy7, eBioscience™), anti-CD206 (MR5D3, Alexa Fluor 647, Bio-Rad), anti-Ly-6G (1A8, PE, BD Pharmingen™) anti-CD335 (NKp46) (29A1.4, APC, BioLegend®), anti-Foxp3 (FJK-16s, APC, eBioscience™) and anti-CD25 (PC61.5, PE-Cy7, eBioscience™). Cells were subsequently washed and resuspended in cold FACS buffer before FACS analysis or flow sorting by a FACS Verse or FACS Aria (BD Biosciences), respectively.

[2] = Tolerability / body weight of treated Panc02 tumor-bearing mice; assay type: in vivo; conditions: MRS2578 3 mg/kg/day i.p.; FIG. 7
Description: as §1, §2

[3] = Panc02 tumors, MRS2578 vs vehicle, FIG. 6

S=C=Nc1cccc(NC(=S)NCCCCNC(=S)Nc2cccc(N=C=S)c2)c1 [MRS2578, N,N-1,4-butanediylbis-N-(3-isothiocyanatophenyl) thiourea]
Migration of BMDMs towards UDP [1]: abrogated
Migration of BMDMs towards UDP ([1]; listed as MRS 2578): specifically inhibited
Tumor volume (Panc02 tumors; MRS2578 3 mg/kg/day i.p. combined to α-PD-1 therapy (10 mg/kg i.p.), sc Panc02, FIG. 5): decrease
Tumor weight (Panc02 tumors; MRS2578 3 mg/kg/day i.p. combined to α-PD-1 therapy (10 mg/kg i.p.), sc Panc02, end stage, FIG. 5): decrease
Infiltration of M2 polarized TAMs into Panc02 tumors (Panc02 tumors; Panc02 tumors, MRS2578): reduced infiltration
Infiltration of tumor-associated macrophages (TAMs) into Panc02 tumors (Panc02 tumors; Panc02 tumors, MRS2578): Reduced infiltration
Activation of CD8+ T cells in the tumors (GZMB, FACS) (Panc02 tumors; [3]): more activated
M2 polarization of macrophages (CD206 expression by FACS) (Panc02 tumors; [3]): reduction of M2 polarization
Harmful effect on mice (evolution of body weight) [2]: no harmful effect
